Experimental findings from patent US20120094939A1, “ANTI-VIRAL COMPOUNDS, COMPOSITIONS AND METHODS” (priority 2007, published 2012) are described below.

The structures appear in SMILES notation.

For the first series, the system named is Huh7/Rep-Feo cells. The experiment in a line: Primary HTS cell viability counter-screen (CellTiterGlo). It is filed as cell-based, human. Conditions: Table 2 antiviral hits of DOS set; approximately 10-50 μM, most at 33 μM; 48 hours. On the procedure: Primary Screening-HTS. Information about the library of known bioactive compounds that was screened and the general automated HTS protocol is available at http://www.broad.harvard.edu/chembio/index.html (see FIG. 10 for list of primary HTS with known bioactives library). Based on the results of optimization experiments in the 384-well plate format, the general HTS protocol was adapted as follows. Unless otherwise indicated, cells were incubated at all times in a humidified environment with 5% CO2 at 37° C. The assay was initiated by plating 30 μL of medium containing 2000 cells/well into white 384-well opaque-bottom plates (Nunc, Rochester, N.Y.) using an automated plate filler (Bio-Tek uFiller; Winsooki, Vt.) and allowing the cells to adhere for 24 hours. One hundred nL of compound stock solutions in DMSO was transferred from stock plates into the 384-well assay plates using an automated pin-based compound transfer robot (CyBio CyBi-Well vario; Woburn, Mass.). The final compound concentration in each well was estimated to be approximately 10-50 μM, with most compounds at 33 μM. The wells contained 0.33% DMSO by volume. The cells were then incubated for another 48 hours. The luminescent signal from each plate was detected using an automated plate reader (Perkin-Elmer Envision 1; Wellesley, Mass.). This screen was performed in duplicate. For negative controls, entire DMSO-treated control plates were employed, in addition to DMSO-only control wells that were incorporated into each compound assay plate. The cells were assayed for luciferase activity using the Bright-Glo Luciferase assay system (Promega), following the manufacturer's instructions. As a counter-screen, cell viability was assessed using the CellTiterGlo Luminescent cell viability assay (Promega) following the manufacturer's instructions.
Computational Data Analysis-Primary Screening. For each replicate, a mock-treatment distribution based on the total population of mock (DMSO) controls in that replicate was built (FIG. 11). Each compound was independently assigned a sign (ie, “+” or “−”) Z-score. Z-scores are calculated by dividing each background-subtracted, compound-treated well by the global standard deviation. A global standard deviation of the background-subtracted, mock-treated wells is calculated over the entire experiment. This distribution was determined to be consistent with experimental noise observed under cell-based assay conditions. The resulting collection of continuousvalued Z-scores represents the primary data set to be used for further analysis. The composite Z-score was calculated as a vector projection of each Z-score in duplicate onto an imaginary line of perfect reproducibility. Reproducibility is the cosine of the angle between each Z-score and that imaginary line; it is dimensionless and ranges from −1 to +1. […] The primary data were analyzed using the commercial software packages Pipeline Pilot (SciTegic, San Diego, Calif.) and SpotFire (SpotFire, Inc., Somerville, Mass.). The means of the negative, DMSO-only controls were considered the zero point.
Primary Screening—HTS: Unless otherwise indicated, cells were incubated at all times in a humidified environment with 5% CO2 at 37° C. The assay was initiated by plating 30 μl of medium containing 2,000 cells/well into white 384-well opaque-bottom plates (Nunc; Rochester, N.Y.) using an automated plate filler (Bio-Tek μFiller; Winsooki, Vt.) and allowing the cells to adhere for 24 hours. 100 nl of compound stock solutions in DMSO were transferred from stock plates into the 384-well assay plates using an automated pin-based compound transfer robot (CyBio CyBi-Well vario; Woburn, Mass.). The final compound concentration in each well was estimated to be approximately 10-50 μM, with most compounds at 33 μM. The wells contained 0.33% DMSO by volume. The cells were then incubated for another 48 hours. […]
A general note: Counterscreens check selectivity or assay interference.
For `Cc1cc(C)c(-c2cc([C@H](C)O/N=C3/[C@H]4CCn5c(=O)n(-c6ccccc6)c(=O)n5[C@H]4[C@H](O)[C@@H]4O[C@H]34)on2)c(C)c1` [BUCMLD-B10A11], the “C-CompZ, compositeZ score for cell viability assay” value (from here on “C-CompZ, compositeZ score”) is reported as −1.7178.

On to `O=C1C2(CO)C=C(Br)C(CC2c2ccccc2)[C@@]12CO2` (stereo partly drawn) [SM_A6B5_2P100], for which the “C-CompZ, compositeZ score” value is −0.2965.

On to `CC(=O)OC[C@H]1O[C@H](CCO/N=C2/[C@H]3CCn4c(=O)n(-c5ccccc5)c(=O)n4[C@H]3[C@H](O)[C@@H]3O[C@H]23)C=C[C@@H]1OC(C)=O` [BUCMLD-B10A3], for which the “C-CompZ, compositeZ score” value is reported as −1.8907. Still for that read-out and setting: the value for `O=C1C2C=C(I)C(CC2OCCCCO)[C@@]12CO2` (stereo partly drawn) [SM_A5B3_2P141] was 0.6345; that for `Cc1cc2c(nc1C)CCCN2CC(C)O/N=C1/[C@H]2CCn3c(=O)n(-c4ccccc4)c(=O)n3[C@H]2[C@H](O)[C@@H]2O[C@H]12` (stereo partly drawn) [BUCMLD-B10A5] was 0.3574.

The same series, now with this note: tested at 33 μM.
As to `COc1cc2c(cc1OC)-c1c/c(=N\c3c(C)cc(C)cc3C)n(C)c(=O)n1CC2` [trequinsin, reference compound], the “cytotoxicity in the primary screen” value was “cytotoxic”.
